From PMC10009787 (ACS Medicinal Chemistry Letters, 2023)
Entries after “also recorded” stand apart in the source; their conditions may differ. Like-named read-outs stand apart in the source and are kept apart here.

Tests used:
HCK = HCK (Homo sapiens, UniProt P08631); assay: SelectScreen kinase profiling / Z′-Lyte kinase assay
BLK = BLK (Homo sapiens, UniProt P51451); assay: as above
EGFR (ErbB1) T790M = EGFR (ErbB1) T790M (Homo sapiens, UniProt P00533, T790M); assay: SelectScreen kinase profiling; type: biochemical; conditions: average of duplicate
RET = RET (Homo sapiens, UniProt P07949); assay: SelectScreen kinase profiling; type: biochemical; conditions: average of duplicate
FYN = FYN (Homo sapiens, UniProt P06241); assay: SelectScreen kinase profiling; type: biochemical; conditions: average of duplicate
YES1 = YES1 (Homo sapiens, UniProt P07947); assay: SelectScreen kinase profiling; type: biochemical; conditions: average of duplicate
CSK = CSK (Homo sapiens, UniProt P41240); assay: SelectScreen kinase profiling; type: biochemical; conditions: average of duplicate
EGFR (ErbB1) L858R = EGFR (ErbB1) L858R (Homo sapiens, UniProt P00533, L858R); assay: SelectScreen kinase profiling; type: biochemical; conditions: average of duplicate
BTK = BTK (Homo sapiens, UniProt Q06187); assay: SelectScreen kinase profiling / Z′-Lyte kinase assay
ITK = molecular target: T1, ITK (Homo sapiens, UniProt Q08881); assay: as above
T1 sequence (Q08881 1-620): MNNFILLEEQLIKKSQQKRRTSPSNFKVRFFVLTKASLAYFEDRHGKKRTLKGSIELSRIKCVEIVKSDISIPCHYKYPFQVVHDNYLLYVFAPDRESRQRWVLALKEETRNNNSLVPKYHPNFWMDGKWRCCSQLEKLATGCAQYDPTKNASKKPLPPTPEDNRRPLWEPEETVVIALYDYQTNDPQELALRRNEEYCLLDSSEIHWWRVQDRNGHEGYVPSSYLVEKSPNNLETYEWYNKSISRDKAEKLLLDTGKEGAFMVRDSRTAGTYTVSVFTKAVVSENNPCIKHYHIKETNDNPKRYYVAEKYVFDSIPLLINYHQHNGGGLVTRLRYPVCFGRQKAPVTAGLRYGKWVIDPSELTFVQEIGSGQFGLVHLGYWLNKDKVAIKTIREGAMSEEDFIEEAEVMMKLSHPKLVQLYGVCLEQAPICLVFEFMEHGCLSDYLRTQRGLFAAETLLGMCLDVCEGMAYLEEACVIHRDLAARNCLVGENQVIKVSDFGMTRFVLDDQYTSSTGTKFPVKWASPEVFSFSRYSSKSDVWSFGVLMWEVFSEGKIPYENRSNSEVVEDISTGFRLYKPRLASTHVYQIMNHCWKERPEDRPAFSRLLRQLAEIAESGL

ABL2 (Arg) = ABL2 (Arg) (Homo sapiens, UniProt P42684); assay: SelectScreen kinase profiling; type: biochemical; conditions: average of duplicate
CSNK1E (CK1 epsilon) = CSNK1E (CK1 epsilon) (Homo sapiens, UniProt P49674); assay: SelectScreen kinase profiling; type: biochemical; conditions: average of duplicate
[1] = BTK selectivity from IC50 values

Chain of BTK (Q06187 whole entry): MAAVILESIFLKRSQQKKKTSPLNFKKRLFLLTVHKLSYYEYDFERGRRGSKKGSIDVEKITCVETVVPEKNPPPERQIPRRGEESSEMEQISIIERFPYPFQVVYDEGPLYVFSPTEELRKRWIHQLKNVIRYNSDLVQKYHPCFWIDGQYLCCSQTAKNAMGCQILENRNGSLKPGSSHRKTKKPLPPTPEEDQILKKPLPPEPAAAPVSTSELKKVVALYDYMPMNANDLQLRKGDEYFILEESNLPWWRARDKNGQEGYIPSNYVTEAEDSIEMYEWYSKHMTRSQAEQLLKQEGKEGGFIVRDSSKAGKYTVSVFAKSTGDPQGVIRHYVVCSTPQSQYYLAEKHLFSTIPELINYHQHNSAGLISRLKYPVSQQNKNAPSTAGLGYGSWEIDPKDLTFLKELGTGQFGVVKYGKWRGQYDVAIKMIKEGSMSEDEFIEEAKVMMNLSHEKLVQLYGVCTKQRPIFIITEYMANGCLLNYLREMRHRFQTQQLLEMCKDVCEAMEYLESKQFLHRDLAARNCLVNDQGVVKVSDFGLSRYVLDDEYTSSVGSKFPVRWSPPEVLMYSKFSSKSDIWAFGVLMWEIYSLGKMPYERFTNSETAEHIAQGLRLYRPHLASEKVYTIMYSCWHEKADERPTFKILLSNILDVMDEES
Chain of BLK (P51451 whole entry): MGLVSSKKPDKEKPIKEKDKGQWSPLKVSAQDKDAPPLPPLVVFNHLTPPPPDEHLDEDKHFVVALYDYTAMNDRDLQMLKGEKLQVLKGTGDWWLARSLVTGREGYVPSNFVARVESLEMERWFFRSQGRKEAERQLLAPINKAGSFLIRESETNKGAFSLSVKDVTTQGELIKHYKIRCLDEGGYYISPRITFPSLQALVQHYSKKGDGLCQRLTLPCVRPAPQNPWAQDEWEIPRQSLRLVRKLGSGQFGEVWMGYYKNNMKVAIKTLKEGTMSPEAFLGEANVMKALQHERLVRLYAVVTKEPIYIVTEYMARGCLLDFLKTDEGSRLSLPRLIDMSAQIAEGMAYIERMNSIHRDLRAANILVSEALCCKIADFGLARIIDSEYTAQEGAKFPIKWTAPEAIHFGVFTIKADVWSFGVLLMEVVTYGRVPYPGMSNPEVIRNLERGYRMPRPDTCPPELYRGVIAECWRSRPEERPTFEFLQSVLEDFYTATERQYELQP
Chain of HCK (P08631 whole entry): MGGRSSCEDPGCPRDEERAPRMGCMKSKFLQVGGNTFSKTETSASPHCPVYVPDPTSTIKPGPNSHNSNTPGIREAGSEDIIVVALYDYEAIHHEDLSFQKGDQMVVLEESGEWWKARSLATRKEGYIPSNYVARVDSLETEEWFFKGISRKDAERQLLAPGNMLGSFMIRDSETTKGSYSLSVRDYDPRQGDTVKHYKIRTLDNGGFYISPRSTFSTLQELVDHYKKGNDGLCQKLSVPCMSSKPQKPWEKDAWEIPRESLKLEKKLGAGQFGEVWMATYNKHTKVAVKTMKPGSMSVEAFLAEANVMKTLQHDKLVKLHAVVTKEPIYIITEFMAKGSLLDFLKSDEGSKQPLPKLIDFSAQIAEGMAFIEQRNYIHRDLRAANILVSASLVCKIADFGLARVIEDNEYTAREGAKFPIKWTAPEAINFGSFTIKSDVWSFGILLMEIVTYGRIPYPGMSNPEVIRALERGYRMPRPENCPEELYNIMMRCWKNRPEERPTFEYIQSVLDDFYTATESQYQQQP
Chain of EGFR (ErbB1) T790M (P00533 25-1210 T790M): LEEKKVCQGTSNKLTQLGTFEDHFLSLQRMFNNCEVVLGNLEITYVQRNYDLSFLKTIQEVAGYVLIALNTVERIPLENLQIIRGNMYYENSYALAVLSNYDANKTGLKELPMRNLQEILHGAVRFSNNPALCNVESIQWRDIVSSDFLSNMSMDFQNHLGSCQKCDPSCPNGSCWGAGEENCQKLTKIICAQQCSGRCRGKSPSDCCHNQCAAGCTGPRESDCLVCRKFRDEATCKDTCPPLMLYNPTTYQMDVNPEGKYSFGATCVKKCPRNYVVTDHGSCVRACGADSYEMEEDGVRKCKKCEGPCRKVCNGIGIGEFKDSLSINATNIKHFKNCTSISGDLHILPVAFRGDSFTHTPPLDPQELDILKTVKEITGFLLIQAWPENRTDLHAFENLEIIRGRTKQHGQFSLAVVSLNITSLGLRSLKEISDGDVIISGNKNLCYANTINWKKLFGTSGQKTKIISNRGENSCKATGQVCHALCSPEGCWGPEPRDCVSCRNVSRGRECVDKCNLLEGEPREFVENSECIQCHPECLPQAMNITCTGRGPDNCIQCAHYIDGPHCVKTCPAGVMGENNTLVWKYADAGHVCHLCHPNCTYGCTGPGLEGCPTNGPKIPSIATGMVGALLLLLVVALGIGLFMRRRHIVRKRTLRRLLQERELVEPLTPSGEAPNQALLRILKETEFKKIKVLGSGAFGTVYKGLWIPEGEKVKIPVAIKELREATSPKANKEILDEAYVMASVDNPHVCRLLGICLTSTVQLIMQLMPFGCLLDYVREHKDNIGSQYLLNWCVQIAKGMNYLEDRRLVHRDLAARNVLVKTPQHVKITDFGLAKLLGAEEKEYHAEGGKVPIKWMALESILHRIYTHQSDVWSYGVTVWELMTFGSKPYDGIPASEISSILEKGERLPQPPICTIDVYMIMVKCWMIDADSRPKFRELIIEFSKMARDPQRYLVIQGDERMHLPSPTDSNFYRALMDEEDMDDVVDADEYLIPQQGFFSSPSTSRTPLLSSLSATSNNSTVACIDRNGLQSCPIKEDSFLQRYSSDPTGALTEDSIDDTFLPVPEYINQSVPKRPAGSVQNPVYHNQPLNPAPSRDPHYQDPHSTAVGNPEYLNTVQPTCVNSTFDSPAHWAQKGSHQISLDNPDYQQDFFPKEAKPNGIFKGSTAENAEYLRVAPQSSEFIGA
Chain of CSNK1E (CK1 epsilon) (P49674 whole entry): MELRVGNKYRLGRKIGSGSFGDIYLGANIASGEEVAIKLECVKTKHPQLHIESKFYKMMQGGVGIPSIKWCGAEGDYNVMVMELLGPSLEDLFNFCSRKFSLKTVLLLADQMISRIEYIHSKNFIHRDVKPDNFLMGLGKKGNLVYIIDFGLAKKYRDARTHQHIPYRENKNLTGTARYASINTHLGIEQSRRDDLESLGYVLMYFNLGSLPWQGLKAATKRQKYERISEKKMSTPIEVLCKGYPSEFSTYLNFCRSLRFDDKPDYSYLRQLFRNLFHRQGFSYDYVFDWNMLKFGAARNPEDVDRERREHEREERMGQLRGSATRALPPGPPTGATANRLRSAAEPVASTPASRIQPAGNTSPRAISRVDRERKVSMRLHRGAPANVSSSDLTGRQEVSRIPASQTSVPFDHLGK
Chain of ABL2 (Arg) (P42684 whole entry): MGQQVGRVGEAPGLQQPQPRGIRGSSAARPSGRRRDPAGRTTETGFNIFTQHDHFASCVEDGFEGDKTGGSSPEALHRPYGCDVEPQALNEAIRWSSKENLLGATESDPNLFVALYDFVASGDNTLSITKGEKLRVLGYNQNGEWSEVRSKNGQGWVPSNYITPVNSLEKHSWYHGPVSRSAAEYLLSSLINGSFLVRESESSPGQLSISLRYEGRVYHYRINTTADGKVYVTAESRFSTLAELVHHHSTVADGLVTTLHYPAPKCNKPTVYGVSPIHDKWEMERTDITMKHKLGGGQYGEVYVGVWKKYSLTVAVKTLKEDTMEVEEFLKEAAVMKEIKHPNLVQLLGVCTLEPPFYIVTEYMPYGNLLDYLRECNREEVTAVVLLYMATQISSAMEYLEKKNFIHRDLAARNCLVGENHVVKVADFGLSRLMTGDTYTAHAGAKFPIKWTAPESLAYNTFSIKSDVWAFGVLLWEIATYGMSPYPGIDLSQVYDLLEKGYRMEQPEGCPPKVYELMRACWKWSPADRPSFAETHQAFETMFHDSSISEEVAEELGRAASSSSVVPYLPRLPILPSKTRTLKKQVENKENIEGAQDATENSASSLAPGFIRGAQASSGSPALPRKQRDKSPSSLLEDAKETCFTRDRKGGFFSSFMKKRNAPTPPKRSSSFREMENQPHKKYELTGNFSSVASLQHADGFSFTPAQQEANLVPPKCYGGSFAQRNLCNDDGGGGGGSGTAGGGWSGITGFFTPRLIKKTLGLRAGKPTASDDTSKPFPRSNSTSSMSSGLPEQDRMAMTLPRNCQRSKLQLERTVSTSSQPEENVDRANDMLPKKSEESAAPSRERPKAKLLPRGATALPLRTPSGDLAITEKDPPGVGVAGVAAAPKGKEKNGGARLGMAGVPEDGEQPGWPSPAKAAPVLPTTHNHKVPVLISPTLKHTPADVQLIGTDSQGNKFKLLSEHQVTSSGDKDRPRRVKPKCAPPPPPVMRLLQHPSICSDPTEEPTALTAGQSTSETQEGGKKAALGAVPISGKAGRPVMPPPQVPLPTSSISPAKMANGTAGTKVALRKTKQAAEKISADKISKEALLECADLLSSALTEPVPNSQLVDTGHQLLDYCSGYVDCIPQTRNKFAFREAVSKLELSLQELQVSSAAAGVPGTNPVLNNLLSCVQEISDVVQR
Chain of FYN (P06241 whole entry): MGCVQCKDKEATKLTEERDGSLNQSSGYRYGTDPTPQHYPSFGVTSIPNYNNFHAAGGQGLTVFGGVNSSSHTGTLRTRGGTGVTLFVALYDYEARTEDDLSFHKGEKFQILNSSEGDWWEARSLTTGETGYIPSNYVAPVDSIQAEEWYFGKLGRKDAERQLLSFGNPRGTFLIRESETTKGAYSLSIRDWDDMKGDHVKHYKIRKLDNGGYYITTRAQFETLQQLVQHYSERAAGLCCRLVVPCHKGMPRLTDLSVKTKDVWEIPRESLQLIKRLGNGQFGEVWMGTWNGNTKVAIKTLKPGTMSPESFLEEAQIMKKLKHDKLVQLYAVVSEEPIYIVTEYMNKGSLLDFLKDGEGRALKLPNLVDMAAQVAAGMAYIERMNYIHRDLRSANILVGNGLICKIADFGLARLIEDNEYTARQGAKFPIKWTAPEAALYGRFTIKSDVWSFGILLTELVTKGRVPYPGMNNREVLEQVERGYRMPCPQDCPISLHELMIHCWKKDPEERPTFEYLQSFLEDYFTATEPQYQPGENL

C=CC(=O)N1CCCC(n2nc(-c3c(C)cc(Oc4ccccc4)cc3C)c3c(N)ncnc32)C1 (stereo in doubt) [Compound 3]
inhibition at 1 µM (HCK): 19% | HCK, BTK/Kinase (HCK; [1]): 180 x | IC50 (HCK; HCK IC50, Z′-Lyte, [ATP] Km app, 1 h incubation, duplicate): 2310 nM | Hillslope (HCK; HCK IC50 curve): 1.00 | inhibition at 0.000495 µM (HCK; read-out: % Inhibition Point 1): 10% | inhibition at 0.00152 µM (HCK; read-out: % Inhibition Point 1): 9% | inhibition at 0.00457 µM (HCK; read-out: % Inhibition Point 1): 10% | inhibition at 0.0137 µM (HCK; read-out: % Inhibition Point 1): 6% | inhibition at 0.0412 µM (HCK; read-out: % Inhibition Point 1): 9% | inhibition at 0.123 µM (HCK; read-out: % Inhibition Point 1): 10% | inhibition at 0.37 µM (HCK; read-out: % Inhibition Point 1): 19% | inhibition at 1.11 µM (HCK; read-out: % Inhibition Point 1): 32% | inhibition at 3.33 µM (HCK; read-out: % Inhibition Point 1): 48% | inhibition at 10 µM (HCK; read-out: % Inhibition Point 1): 62% | inhibition at 0.000495 µM (HCK; read-out: % Inhibition Point 2): 7% | inhibition at 0.00152 µM (HCK; read-out: % Inhibition Point 2): 7% | inhibition at 0.00457 µM (HCK; read-out: % Inhibition Point 2): 5% | inhibition at 0.0137 µM (HCK; read-out: % Inhibition Point 2): 10% | inhibition at 0.0412 µM (HCK; read-out: % Inhibition Point 2): 8% | inhibition at 0.123 µM (HCK; read-out: % Inhibition Point 2): 15% | inhibition at 0.37 µM (HCK; read-out: % Inhibition Point 2): 15% | inhibition at 1.11 µM (HCK; read-out: % Inhibition Point 2): 29% | inhibition at 3.33 µM (HCK; read-out: % Inhibition Point 2): 49% | inhibition at 10 µM (HCK; read-out: % Inhibition Point 2): 65% | inhibition at 1 µM (BLK): 100% | IC50 (BLK; BLK IC50, Z′-Lyte, [ATP] Km app, 1 h incubation, duplicate): 35.6 nM | Hillslope (BLK; BLK IC50 curve): 1.08 | BLK, BTK/Kinase (BLK; [1]): 2.8 x | inhibition at 0.000495 µM (BLK; read-out: % Inhibition Point 1): -5% | inhibition at 0.00152 µM (BLK; read-out: % Inhibition Point 1): 5% | inhibition at 0.00457 µM (BLK; read-out: % Inhibition Point 1): 13% | inhibition at 0.0137 µM (BLK; read-out: % Inhibition Point 1): 30% | inhibition at 0.0412 µM (BLK; read-out: % Inhibition Point 1): 56% | inhibition at 0.123 µM (BLK; read-out: % Inhibition Point 1): 77% | inhibition at 0.37 µM (BLK; read-out: % Inhibition Point 1): 98% | inhibition at 1.11 µM (BLK; read-out: % Inhibition Point 1): 101% | inhibition at 3.33 µM (BLK; read-out: % Inhibition Point 1): 101% | inhibition at 10 µM (BLK; read-out: % Inhibition Point 1): 101% | inhibition at 0.000495 µM (BLK; read-out: % Inhibition Point 2): 8% | inhibition at 0.00152 µM (BLK; read-out: % Inhibition Point 2): -3% | inhibition at 0.00457 µM (BLK; read-out: % Inhibition Point 2): 7% | inhibition at 0.0137 µM (BLK; read-out: % Inhibition Point 2): 24% | inhibition at 0.0412 µM (BLK; read-out: % Inhibition Point 2): 55% | inhibition at 0.123 µM (BLK; read-out: % Inhibition Point 2): 82% | inhibition at 0.37 µM (BLK; read-out: % Inhibition Point 2): 96% | inhibition at 1.11 µM (BLK; read-out: % Inhibition Point 2): 101% | inhibition at 3.33 µM (BLK; read-out: % Inhibition Point 2): 102% | inhibition at 10 µM (BLK; read-out: % Inhibition Point 2): 101% | inhibition at 1 µM (EGFR (ErbB1) T790M): 6% | inhibition at 1 µM (RET): 5% | inhibition at 1 µM (FYN): 19% | inhibition at 1 µM (YES1): 45% | inhibition at 1 µM (CSK): 15% | inhibition at 1 µM (EGFR (ErbB1) L858R): 2% | inhibition at 1 µM (BTK): 100% | IC50 (BTK; BTK IC50, Z′-Lyte, [ATP] Km app, 1 h incubation, duplicate): 12.8 nM | Hillslope (BTK; BTK IC50 curve): 1.25 | inhibition at 0.000495 µM (BTK; read-out: % Inhibition Point 1): -4% | inhibition at 0.00152 µM (BTK; read-out: % Inhibition Point 1): 11% | inhibition at 0.00457 µM (BTK; read-out: % Inhibition Point 1): 23% | inhibition at 0.0137 µM (BTK; read-out: % Inhibition Point 1): 49% | inhibition at 0.0412 µM (BTK; read-out: % Inhibition Point 1): 84% | inhibition at 0.123 µM (BTK; read-out: % Inhibition Point 1): 97% | inhibition at 0.37 µM (BTK; read-out: % Inhibition Point 1): 98% | inhibition at 1.11 µM (BTK; read-out: % Inhibition Point 1): 100% | inhibition at 3.33 µM (BTK; read-out: % Inhibition Point 1): 98% | inhibition at 10 µM (BTK; read-out: % Inhibition Point 1): 98% | inhibition at 0.000495 µM (BTK; read-out: % Inhibition Point 2): 1% | inhibition at 0.00152 µM (BTK; read-out: % Inhibition Point 2): 5% | inhibition at 0.00457 µM (BTK; read-out: % Inhibition Point 2): 22% | inhibition at 0.0137 µM (BTK; read-out: % Inhibition Point 2): 49% | inhibition at 0.0412 µM (BTK; read-out: % Inhibition Point 2): 80% | inhibition at 0.123 µM (BTK; read-out: % Inhibition Point 2): 96% | inhibition at 0.37 µM (BTK; read-out: % Inhibition Point 2): 98% | inhibition at 1.11 µM (BTK; read-out: % Inhibition Point 2): 102% | inhibition at 3.33 µM (BTK; read-out: % Inhibition Point 2): 97% | inhibition at 10 µM (BTK; read-out: % Inhibition Point 2): 99% | IC50 (ITK): > 10000 nM | inhibition at 1 µM (ITK): 8% | ITK, BTK/Kinase (ITK; [1]): > 781 x | Hillslope (ITK; ITK IC50 curve): 1.28 | ITK IC50 (ITK; Z′-Lyte, [ATP] Km app, 1 h incubation, duplicate): no observable activities; also recorded: no observable ITK activity | inhibition at 0.00457 µM (ITK; read-out: % Inhibition Point 1): -1% | inhibition at 0.0137 µM (ITK; read-out: % Inhibition Point 1): -4% | inhibition at 0.0412 µM (ITK; read-out: % Inhibition Point 1): -4% | inhibition at 0.123 µM (ITK; read-out: % Inhibition Point 1): -2% | inhibition at 0.37 µM (ITK; read-out: % Inhibition Point 1): 5% | inhibition at 1.11 µM (ITK; read-out: % Inhibition Point 1): 8% | inhibition at 3.33 µM (ITK; read-out: % Inhibition Point 1): 13% | inhibition at 10 µM (ITK; read-out: % Inhibition Point 1): 51% | inhibition at 0.000495 µM (ITK; read-out: % Inhibition Point 2): 7% | inhibition at 0.00152 µM (ITK; read-out: % Inhibition Point 2): -5% | inhibition at 0.00457 µM (ITK; read-out: % Inhibition Point 2): -1% | inhibition at 0.0137 µM (ITK; read-out: % Inhibition Point 2): 1% | inhibition at 0.0412 µM (ITK; read-out: % Inhibition Point 2): -2% | inhibition at 0.123 µM (ITK; read-out: % Inhibition Point 2): 0% | inhibition at 0.37 µM (ITK; read-out: % Inhibition Point 2): 5% | inhibition at 1.11 µM (ITK; read-out: % Inhibition Point 2): 4% | inhibition at 3.33 µM (ITK; read-out: % Inhibition Point 2): 16% | inhibition at 10 µM (ITK; read-out: % Inhibition Point 2): 47% | inhibition at 1 µM (ABL2 (Arg)): 0% | inhibition at 1 µM (CSNK1E (CK1 epsilon)): 9%
